Source: patent US9975921B2, “Crystal forms of anamorelin” (Helsinn Healthcare SA, priority 2004, dated 2018)

Columns and labels:
Format in all cases: physicochemical
[1] = Hygroscopicity study: Dynamic Vapor Sorption analysis (DVS)
Method: (§1) The hygroscopicity of (3R)-1-(2-methylalanyl-D-tryptophyl)-3-(phenylmethyl)-3-piperidinecarboxylic acid 1,2,2-trimethylhydrazide form C produced by the method disclosed in Example 4 (monohydrate) was evaluated using Dynamic Vapor Sorption analysis (DVS) and Thermogravimetric analysis (TGA). Dynamic Vapor Sorption Analysis (DVS)
The samples were analyzed using a Hiden IGAsorp vapor sorption analyzer. Each sample was placed in a sample pan and exposed to drying at 25° C. in a dry nitrogen stream for two hours. This assured that the samples being analyzed were at a constant weight prior to the start of the analysis. The samples were then analyzed at 25.0° C. The adsorption isotherm was conducted between: 10-90% RH with a step size of 10%. The desorption isotherm was conducted between 85-0% RH with a step size 10%. After the isotherms were complete, each of the samples were heated to 125° C. until the weight loss curve reached an asymptote or for 4 hours.

[2] = Hygroscopicity study: Thermogravimetric analysis (TGA); settings: before DVS
Method: as §1
The samples were analyzed using a Mettler 851e thermogravimetric analyzer. Samples were weighed into a crucible. The samples were heated from 30° C. to 300.0° C. ramped at 10.00° C./min with an air purge.

[3] = 12 month stability study: water content by Karl Fischer
Method: (§2) Crystalline (3R)-1-(2-methylalanyl-D-tryptophyl)-3-(phenylmethyl)-3-piperidinecarboxylic acid 1,2,2-trimnethylhydrazide was placed in double plastic bags, closed under a nitrogen blanket, and placed inside a small fiberboard container, the physical appearance, water content, purity and crystallinity were tested every three months for a period of 12 months under a variety of conditions.
(§3) The purity and water content of (3R)-1-(2-methylalanyl-D-tryptophyl)-3-(phenylmethyl)-3-piperidinecarboxylic acid 1,2,2-trimethylhydrazide was analyzed using HPLC and KF respectively before, during, and after the 12 month stability study.

[4] = as above; settings: 1 month
[5] = 12 month stability study: crystallinity using optical microscopy (USP <695>)
Method: as §2

[6] = 12 month stability study: physical description (TM-106)
Method: as §2

[7] = 12 month stability study: HPLC area % (TM-808)
Method: as §2, §3

[8] = 12 month stability study: HPLC weight % (TM-808)
Method: as §2, §3

[9] = 12 month stability study: DSC (USP <891>)
Method: as §2

Q: Which “relative humidity above which the dihydrate was formed” value ([1]; DVS) does the source give for `CN(C)N(C)C(=O)[C@@]1(Cc2ccccc2)CCCN(C(=O)[C@@H](Cc2c[nH]c3ccccc23)NC(=O)C(C)(C)N)C1` [Form C monohydrate, (3R)-1-(2-methylalanyl-D-tryptophyl)-3-(phenylmethyl)-3-piperidinecarboxylic acid 1,2,2-trimethylhydrazide] here?
A: > 35%

Q: And the “water contained after steady adsorption” value ([1]; adsorption isotherm, 25.0° C., at 35% RH)?
A: 6 % by weight

Q: And the additional adsorption ([1]; adsorption isotherm, up to 90% RH)?
A: No other significant additional adsorption

Q: And the “relative humidity down to which the dihydrate form was observed” value ([1]; desorption isotherm)?
A: 30 % RH

Q: What about the “bound water initially contained” value [2] of the same molecule?
A: 2.5 % by weight

Q: Which “Water content by Karl Fisher” value ([3]; 5° C., 3 months) does the source give for `CN(C)N(C)C(=O)[C@@]1(Cc2ccccc2)CCCN(C(=O)[C@@H](Cc2c[nH]c3ccccc23)NC(=O)C(C)(C)N)C1` [crystalline anamorelin, (3R)-1-(2-methylalanyl-D-tryptophyl)-3-(phenylmethyl)-3-piperidinecarboxylic acid 1,2,2-trimethylhydrazide] here?
A: 6.0%

Q: What about the “Water content by Karl Fisher” value ([3]; 5° C., 6 months) of the same molecule?
A: 5.8%

Q: And the “Water content by Karl Fisher” value ([3]; 5° C., 9 months)?
A: 5.6%

Q: And the “Water content by Karl Fisher” value ([3]; 5° C., 12 months)?
A: 6.1%

Q: What about the “Water content by Karl Fisher” value ([3]; 25° C. 60% RH, 3 months) of the same molecule?
A: 6.0%

Q: What about the “Water content by Karl Fisher” value ([3]; 25° C. 60% RH, 6 months) of the same molecule?
A: 5.9%

Q: And the “Water content by Karl Fisher” value ([3]; 25° C. 60% RH, 9 months)?
A: 5.7%

Q: And the “Water content by Karl Fisher” value ([3]; 25° C. 60% RH, 12 months)?
A: 5.8%

Q: What about the “Water content by Karl Fisher” value ([3]; 40° C. 75% RH, 3 months) of the same molecule?
A: 6.1%

Q: What about the “Water content by Karl Fisher” value ([3]; 40° C. 75% RH, 6 months) of the same molecule?
A: 5.9%

Q: What about the “water content (Karl Fischer Analysis)” value ([3]; after 12 months) of the same molecule?
A: approximately 6%

Q: What about the “Water content by Karl Fisher” value ([4]; 5° C.) of the same molecule?
A: 5.3%

Q: And the “Water content by Karl Fisher” value ([4]; 25° C. 60% RH)?
A: 5.8%

Q: And the “Water content by Karl Fisher” value ([4]; 40° C. 75% RH)?
A: 6.1%

Q: And the “Crystallinity using Optical Microscopy” value ([5]; 5° C., 1 month)?
A: Crystal-

Q: What about the “Crystallinity using Optical Microscopy” value ([5]; 5° C., 3 months) of the same molecule?
A: Crystal-

Q: And the “Crystallinity using Optical Microscopy” value ([5]; 5° C., 6 months)?
A: Crystal-

Q: And the “Crystallinity using Optical Microscopy” value ([5]; 5° C., 9 months)?
A: Crystal-

Q: What about the “Crystallinity using Optical Microscopy” value ([5]; 5° C., 12 months) of the same molecule?
A: Crystal-

Q: What about the “Crystallinity using Optical Microscopy” value ([5]; 25° C. 60% RH, 1 month) of the same molecule?
A: Crystal-

Q: What about the “Crystallinity using Optical Microscopy” value ([5]; 25° C. 60% RH, 3 months) of the same molecule?
A: Crystal-

Q: What about the “Crystallinity using Optical Microscopy” value ([5]; 25° C. 60% RH, 6 months) of the same molecule?
A: Crystal-

Q: And the “Crystallinity using Optical Microscopy” value ([5]; 25° C. 60% RH, 9 months)?
A: Crystal-

Q: What about the “Crystallinity using Optical Microscopy” value ([5]; 25° C. 60% RH, 12 months) of the same molecule?
A: Crystal-

Q: And the “Crystallinity using Optical Microscopy” value ([5]; 40° C. 75% RH, 1 month)?
A: Crystal-

Q: And the “Crystallinity using Optical Microscopy” value ([5]; 40° C. 75% RH, 3 months)?
A: Crystal-

Q: And the “Crystallinity using Optical Microscopy” value ([5]; 40° C. 75% RH, 6 months)?
A: Crystal-

Q: What about the “Crystallinity using Optical Microscopy” value ([5]; Initial) of the same molecule?
A: Crystal-

Q: What about the “Physical Description” value ([6]; 5° C., 1 month) of the same molecule?
A: Off-white

Q: And the “Physical Description” value ([6]; 5° C., 3 months)?
A: Off-white

Q: What about the “Physical Description” value ([6]; 5° C., 6 months) of the same molecule?
A: Off-white

Q: What about the “Physical Description” value ([6]; 5° C., 9 months) of the same molecule?
A: White

Q: What about the “Physical Description” value ([6]; 5° C., 12 months) of the same molecule?
A: Off-white

Q: And the “Physical Description” value ([6]; 25° C. 60% RH, 1 month)?
A: Off-white

Q: And the “Physical Description” value ([6]; 25° C. 60% RH, 3 months)?
A: Off-white

Q: And the “Physical Description” value ([6]; 25° C. 60% RH, 6 months)?
A: Off-white

Q: And the “Physical Description” value ([6]; 25° C. 60% RH, 9 months)?
A: Off-white

Q: What about the “Physical Description” value ([6]; 25° C. 60% RH, 12 months) of the same molecule?
A: Off-white

Q: And the “Physical Description” value ([6]; 40° C. 60% RH, 1 month)?
A: Off-white

Q: And the “Physical Description” value ([6]; 40° C. 60% RH, 3 months)?
A: Off-white

Q: And the “Physical Description” value ([6]; 40° C. 60% RH, 6 months)?
A: Off-white

Q: And the “Physical Description” value ([6]; Initial)?
A: Off-white

Q: What about the “HPLC Area %” value ([7]; 5° C., 1 month) of the same molecule?
A: 99.7%

Q: What about the “HPLC Area %” value ([7]; 5° C., 3 months) of the same molecule?
A: 99.7%

Q: And the “HPLC Area %” value ([7]; 5° C., 6 months)?
A: 99.7%

Q: And the “HPLC Area %” value ([7]; 5° C., 9 months)?
A: 99.8%

Q: And the “HPLC Area %” value ([7]; 5° C., 12 months)?
A: 99.7%

Q: And the “HPLC Area %” value ([7]; 25° C. 60% RH, 1 month)?
A: 99.7%

Q: What about the “HPLC Area %” value ([7]; 25° C. 60% RH, 3 months) of the same molecule?
A: 99.7%

Q: What about the “HPLC Area %” value ([7]; 25° C. 60% RH, 6 months) of the same molecule?
A: 99.7%

Q: And the “HPLC Area %” value ([7]; 25° C. 60% RH, 9 months)?
A: 99.8%

Q: And the “HPLC Area %” value ([7]; 25° C. 60% RH, 12 months)?
A: 99.7%

Q: And the “HPLC Area %” value ([7]; 40° C. 75% RH, 1 month)?
A: 99.7%

Q: What about the “HPLC Area %” value ([7]; 40° C. 75% RH, 3 months) of the same molecule?
A: 99.7%

Q: And the “HPLC Area %” value ([7]; 40° C. 75% RH, 6 months)?
A: 99.7%

Q: And the “HPLC Area %” value ([7]; Initial)?
A: 99.8%

Q: What about the purity ([7]; after 12 months) of the same molecule?
A: relatively unchanged

Q: And the “HPLC Weight %” value ([8]; 5° C., 1 month)?
A: 92.0%

Q: What about the “HPLC Weight %” value ([8]; 5° C., 3 months) of the same molecule?
A: 93.2%

Q: What about the “HPLC Weight %” value ([8]; 5° C., 6 months) of the same molecule?
A: 93.9%

Q: And the “HPLC Weight %” value ([8]; 5° C., 9 months)?
A: 94.5%

Q: What about the “HPLC Weight %” value ([8]; 5° C., 12 months) of the same molecule?
A: 94.3%

Q: What about the “HPLC Weight %” value ([8]; 25° C. 60% RH, 1 month) of the same molecule?
A: 92.1%

Q: And the “HPLC Weight %” value ([8]; 25° C. 60% RH, 3 months)?
A: 93.2%

Q: And the “HPLC Weight %” value ([8]; 25° C. 60% RH, 6 months)?
A: 94.2%

Q: What about the “HPLC Weight %” value ([8]; 25° C. 60% RH, 9 months) of the same molecule?
A: 94.6%

Q: And the “HPLC Weight %” value ([8]; 25° C. 60% RH, 12 months)?
A: 94.2%

Q: And the “HPLC Weight %” value ([8]; 40° C. 75% RH, 1 month)?
A: 91.8%

Q: And the “HPLC Weight %” value ([8]; 40° C. 75% RH, 3 months)?
A: 93.0%

Q: And the “HPLC Weight %” value ([8]; 40° C. 75% RH, 6 months)?
A: 94.1%

Q: What about the “HPLC Weight %” value ([8]; Initial) of the same molecule?
A: 99.8%

Q: And the “DSC Onset” value ([9]; 5° C., 3 months)?
A: 112.1 °C

Q: What about the “DSC Peak” value ([9]; 5° C., 3 months) of the same molecule?
A: 117.1 °C

Q: What about the “DSC Onset” value ([9]; 5° C., 6 months) of the same molecule?
A: 112.3 °C

Q: And the “DSC Peak” value ([9]; 5° C., 6 months)?
A: 116.9 °C

Q: And the “DSC Onset” value ([9]; 25° C. 60% RH, 3 months)?
A: 112.6 °C

Q: What about the “DSC Peak” value ([9]; 25° C. 60% RH, 3 months) of the same molecule?
A: 117.7 °C

Q: And the “DSC Onset” value ([9]; 25° C. 60% RH, 6 months)?
A: 112.5 °C

Q: What about the DSC Peak ([9]; 25° C. 60% RH, 6 months) of the same molecule?
A: 117 °C

Q: And the “DSC Onset” value ([9]; 40° C. 75% RH, 3 months)?
A: 112.2 °C

Q: What about the “DSC Peak” value ([9]; 40° C. 75% RH, 3 months) of the same molecule?
A: 117.5 °C

Q: What about the “DSC Onset” value ([9]; 40° C. 75% RH, 6 months) of the same molecule?
A: 125.5 °C

Q: What about the “DSC Peak” value ([9]; 40° C. 75% RH, 6 months) of the same molecule?
A: 117.8 °C

Q: And the “DSC Onset” value ([9]; Initial)?
A: 108.2 °C

Q: What about the “DSC Peak” value ([9]; Initial) of the same molecule?
A: 112.7 °C
